# Source: US9890126B2 (priority 2012, dated 2018)
# Marks after values point to notes of the source that are not given here.
# Tested on: Burkholderia
# Test: not given
# Settings: cells printing symbol L
row,SMILES,% Growth Inhibition Endpoint (24 h)
1,CCOC(=O)c1cnc(Nc2ccc(N3CCOCC3)cc2)[nH]c1=O [HGN-0037],L^c
2,Oc1ccc(-c2cncn2Cc2cccc(Cl)c2)cc1 [HGN-0090],L^c
3,Oc1ccc(-c2cncn2Cc2ccccc2Cl)cc1 [HGN-0091],L^c
4,Oc1ccc(-c2cncn2Cc2ccc(Cl)cc2)cc1 [HGN-0094],L^c
5,Oc1ccc(-c2cncn2CCc2ccccc2Cl)cc1 [HGN-0096],L^c
6,Oc1ccc(-c2cncn2CCc2ccc(Cl)c(Cl)c2)cc1 [HGN-0100],L^c
7,Oc1ccc(-c2cncn2CCc2cccc(Cl)c2)cc1 [HGN-0108],L^c

# Same assay, conditions: concentration not given
row,SMILES,inhibition against Burkholderia [%]
1,Oc1ccc(-c2cncn2CCc2ccc(F)cc2)cc1 [HGN-0095],88.3

# Same assay, conditions: relative to DMSO control; 0.00 = growth with inhibitor equal to or greater than DMSO control
SMILES,% Growth Inhibition Endpoint (24 h),% Growth Inhibition Growth Curve
Oc1ccc(-c2cncn2CCc2c(Cl)cccc2Cl)cc1 [HGN0098],0.00^b %,
NC(=O)c1c[nH]nc1NC(=O)c1cncs1 [HGN-0004],0.00^b %,
Nc1ccn([C@@H]2O[C@H](CNC(=O)c3ccncc3)[C@@H](O)[C@H]2O)c(=O)n1 [HGN-0005],,0.00^b %
Nc1ccn([C@@H]2O[C@H](CNC(=O)c3cn4ccsc4n3)[C@@H](O)[C@H]2O)c(=O)n1 [HGN-0006],0.00^b %,
Nc1ccn([C@@H]2O[C@H](CNC(=O)c3ccnc4nc[nH]c34)[C@@H](O)[C@H]2O)c(=O)n1 [HGN-0007],0.00^b %,
Nc1ccn([C@@H]2O[C@H](CNC(=O)c3cscn3)[C@@H](O)[C@H]2O)c(=O)n1 [HGN-0008],0.00^b %,
NC(=O)c1c[nH]nc1NC(=O)Cc1cn2ccsc2n1 [HGN-0009],0.00^b %,
NC(=O)c1c[nH]nc1NC(=O)c1cnc2sccn12 [HGN-0010],7.22 ± 4.24%,
O=C([O-])c1cnc(Nc2ccc(-c3ccncc3)cc2)nc1[O-].[Na+].[Na+] [HGN-0013],,6.26 ± 1.00%
O=C([O-])c1cnc(Nc2ccc(Br)cc2)nc1[O-].[Na+].[Na+] [HGN-0014],15.52 ± 0.41%,
CCOC(=O)c1cnc(Nc2ccc(-c3ccncc3)cc2)[nH]c1=O [HGN-0015],,14.43 ± 2.38%
"CCOC(=O)c1cnc(NCC2CCCO2)[nH]c1=O (centres unmarked) [HGN-0017, ethyl 6-oxo-2-(((tetrahydrofuran-2-yl)methyl)amino)-1,6-dihydropyrimidine-5-carboxylate]",,0.00^b %
Oc1ccc(-c2cncn2CCc2c[nH]c3ccccc23)cc1 [HGN-0020],,1.26 ± 2.33%
Oc1ccc(-c2cncn2CCc2ccccc2)cc1 [HGN-0022],0.00^b %,
Cn1cncc1C(O)c1ccccc1 (centres unmarked) [HGN-0031],,0.00^b %
"CCOC(=O)c1cnc(Nc2ccc(-c3ccccc3)cc2)[nH]c1=O [HGN-0033, ethyl 2-((1,1′-biphenyl)-4-ylamino)-6-oxo-1,6-dihydropyrimidine-5-carboxylate]",5.07 ± 2.01%,
"CCOC(=O)c1cnc(Nc2ccc(N3CCCCC3)cc2)[nH]c1=O [HGN-0034, ethyl 6-oxo-2-((4-(piperidin-1-yl)phenyl)amino)-1,6-dihydropyrimidine-5-carboxylate]",86.20 ± 0.16%,
"O=C(O)c1cnc(Nc2ccc(-c3ccccc3)cc2)[nH]c1=O [HGN-0035, 2-((1,1′-biphenyl)-4-ylamino)-6-oxo-1,6-dihydropyrimidine-5-carboxylic acid]",91.14 ± 1.18%,
O=C([O-])c1cnc(Nc2ccc(N3CCCCC3)cc2)nc1[O-].[Na+].[Na+] [HGN-0036],22.38 ± 21.24%,
"CCOC(=O)c1cnc(NCCc2ccc(Cl)cc2)[nH]c1=O [HGN-0038, Ethyl 2-((4-chlorophenethyl)amino)-6-oxo-1,6-dihydropyrimidine-5-carboxylate]",0.00^b %,

SMILES,% Growth Inhibition Endpoint (24 h),% Growth Inhibition Growth Curve
CCOC(=O)c1cnc(Nc2cccc(-c3ccccc3)c2)[nH]c1=O [HGN-0039],0.00^b %,
"O=C([O-])c1cnc(Nc2cccc(-c3ccccc3)c2)nc1[O-].[Na+].[Na+] [HGN-0044, Sodium 2-([1,1′-biphenyl]-3-ylamino)-4-oxidopyrimidine-5-carboxylate]",1.48 ± 7.90%,
"CCOC(=O)c1cnc(NCc2ccco2)[nH]c1=O [HGN-0047, Ethyl 2-((furan-2-ylmethyl)amino)-6-oxo-1,6-diydropyrimidine-5-carboxylate]",0.00^b %,
O=C([O-])c1cnc(NCC2CCCO2)nc1[O-].[Na+].[Na+] (centres unmarked) [HGN-0050],32.99 ± 9.22%,
Oc1ccc(-c2cncn2Cc2ccc(Cl)c(Cl)c2)cc1 [HGN-0092],25.41 ± 2.79%,
Oc1ccc(-c2cncn2Cc2ccc(F)cc2)cc1 [HGN-0093],58.12 ± 2.17%,
Oc1ccc(-c2cncn2CCc2ccc(F)cc2)cc1 [HGN-0095],88.27 ± 0.48%,
Oc1ccc(-c2cncn2CCc2cccc(F)c2)cc1 [HGN-0097],4.27 ± 14.54%,
Oc1ccc(-c2cncn2CCc2ccc(Cl)cc2Cl)cc1 [HGN-0099],0.00^b %,
Nc1ccn([C@@H]2O[C@H](CNC(=O)Cc3cn4ccsc4n3)[C@@H](O)[C@H]2O)c(=O)n1 [HGN-0102],0.00^b %,
Oc1ccc(-c2cncn2Cc2ccccc2F)cc1 [HGN-0106],33.79 ± 16.09%,
Oc1ccc(-c2cncn2CCc2ccccc2F)cc1 [HGN-0107],2.75 ± 2.62%,
Oc1ccc(-c2cncn2Cc2cccc(F)c2)cc1 [HGN-0109],24.77 ± 10.79%,
CCOC(=O)c1cnc(NCCc2ccc(F)cc2)[nH]c1=O [HGN-0111],31.31 ± 39.32%,
O=C([O-])c1cnc(NCCc2ccc(F)cc2)nc1[O-].[Na+].[Na+] [HGN-0112],19.82 ± 16.53%,
CCOC(=O)c1cnc(NCc2ccc(F)cc2)[nH]c1=O [HGN-0113],0.00^b %,
O=C([O-])c1cnc(NCc2ccc(F)cc2)nc1[O-].[Na+].[Na+] [HGN-0114],5.94 ± 5.46%,
CCOC(=O)c1cnc(NCCc2cccc(F)c2)[nH]c1=O [HGN-0115],0.00^b %,
O=C([O-])c1cnc(NCCc2cccc(F)c2)nc1[O-].[Na+].[Na+] [HGN-0116],20.46 ± 3.47%,
CCOC(=O)c1cnc(NCCc2ccc(Cl)cc2Cl)[nH]c1=O [HGN-0117],0.00^b %,

SMILES,% Growth Inhibition Endpoint (24 h),% Growth Inhibition Growth Curve
CCOC(=O)c1cnc(NCCc2ccccc2Cl)[nH]c1=O [HGN-0119],0.00^b %,
O=C([O-])c1cnc(NCCc2ccccc2Cl)nc1[O-].[Na+].[Na+] [HGN-0120],80.30 ± 0.40%,
CCOC(=O)c1cnc(NCc2ccccc2Cl)[nH]c1=O [HGN-0121],0.00^b %,
O=C([O-])c1cnc(NCc2ccccc2Cl)nc1[O-].[Na+].[Na+] [HGN-0122],23.02 ± 8.79%,
CCOC(=O)c1cnc(NCc2cccc(Cl)c2)[nH]c1=O [HGN-0123],0.00^b %,
O=C([O-])c1cnc(NCc2cccc(Cl)c2)nc1[O-].[Na+].[Na+] [HGN-0124],30.67 ± 2.67%,
CCOC(=O)c1cnc(NCc2ccc(Cl)cc2)[nH]c1=O [HGN-0125],23.89 ± 36.14%,
O=C([O-])c1cnc(NCc2ccc(Cl)cc2)nc1[O-].[Na+].[Na+] [HGN-0126],34.34 ± 3.24%,
CCOC(=O)c1cnc(NCc2cc(Cl)ccc2Cl)[nH]c1=O [HGN-0127],3.47 ± 2.20%,
O=C([O-])c1cnc(NCc2cc(Cl)ccc2Cl)nc1[O-].[Na+].[Na+] [HGN-0128],37.46 ± 0.21%,
CCOC(=O)c1cnc(NCc2ccc(Cl)c(Cl)c2)[nH]c1=O [HGN-0129],64.42 ± 2.77%,
O=C([O-])c1cnc(NCc2ccc(Cl)c(Cl)c2)nc1[O-].[Na+].[Na+] [HGN-0130],45.59 ± 2.35%,
CCOC(=O)c1cnc(NCCc2ccc(Cl)c(Cl)c2)[nH]c1=O [HGN-0131],0.00^b %,
O=C([O-])c1cnc(NCCc2ccc(Cl)c(Cl)c2)nc1[O-].[Na+].[Na+] [HGN-0132],72.24 ± 11.83%,
CCOC(=O)c1cnc(NCc2ccccc2F)[nH]c1=O [HGN-0133],0.00^b %,
O=C([O-])c1cnc(NCc2ccccc2F)nc1[O-].[Na+].[Na+] [HGN-0134],26.05 ± 6.37%,
CCOC(=O)c1cnc(NCCc2c(Cl)cccc2Cl)[nH]c1=O [HGN-0135],0.00^b %,
O=C([O-])c1cnc(NCCc2c(Cl)cccc2Cl)nc1[O-].[Na+].[Na+] [HGN-0136],16.71 ± 5.04%,
COc1cc(-c2cncn2CCc2c[nH]c3ccccc23)ccc1O [HGN-0137],0.00^b %,

# Target: IspF (Burkholderia pseudomallei, UniProt Q3JRA0)
# Test: biochemical
# Assay type: binding
# Settings: not given
# Sequence of IspF (Q3JRA0 whole entry, looked up): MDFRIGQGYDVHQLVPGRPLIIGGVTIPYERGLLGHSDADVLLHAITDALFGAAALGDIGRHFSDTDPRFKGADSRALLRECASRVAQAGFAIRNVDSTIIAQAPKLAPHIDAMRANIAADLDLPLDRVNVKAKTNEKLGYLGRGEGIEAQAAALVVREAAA
row,SMILES,Kd [µM]
1,Nc1ccn([C@@H]2O[C@H](CNC(=O)c3ccncc3)[C@@H](O)[C@H]2O)c(=O)n1 [HGN-0005],176
2,Oc1ccc(-c2cncn2Cc2ccco2)cc1 [HGN-0019],380
3,Oc1ccc(-c2cncn2CCc2c[nH]c3ccccc23)cc1 [HGN-0020],204
4,Oc1ccc(CCn2cncc2-c2ccc(O)cc2)cc1 [HGN-0048],486

# Same assay, conditions: pH 7.4
row,SMILES,Kd
1,NC(=O)c1c[nH]nc1NC(=O)c1c[nH]c2ncccc12 [HGN-0002],not soluble
2,O=C([O-])c1cnc(Nc2ccc(-c3ccncc3)cc2)nc1[O-].[Na+].[Na+] [HGN-0013],non-specific
3,CC(C)n1cncc1-c1ccc(O)cc1 [HGN-0018],no binding
4,"O=C(O)c1cnc(Nc2ccc(-c3ccccc3)cc2)[nH]c1=O [HGN-0035, 2-((1,1′-biphenyl)-4-ylamino)-6-oxo-1,6-dihydropyrimidine-5-carboxylic acid]",not soluble
5,CCOC(=O)c1cnc(Nc2ccc(N3CCOCC3)cc2)[nH]c1=O [HGN-0037],not soluble
6,"CCOC(=O)c1cnc(NCCc2ccc(Cl)cc2)[nH]c1=O [HGN-0038, Ethyl 2-((4-chlorophenethyl)amino)-6-oxo-1,6-dihydropyrimidine-5-carboxylate]",not soluble
7,CCOC(=O)c1cnc(Nc2cccc(-c3ccccc3)c2)[nH]c1=O [HGN-0039],non specific
8,Oc1ccc(-c2cncn2CCc2ccccc2)cc1 [HGN-0052],no binding
9,Oc1ccc(-n2ccnc2)cc1 [HGN-0056],no binding
10,OC(Cn1cnc(-c2ccccc2)c1-c1ccccc1)c1ccccc1 (centres unmarked) [HGN-0060],not soluble
11,Cn1ccnc1C(O)Cc1ccccc1 (centres unmarked) [HGN-0061],no binding
12,CC(c1ccccc1)C(O)c1nccn1-c1ccccc1 (centres unmarked) [HGN-0062],no binding
